Assay results reported in ChEMBL document CHEMBL3751695, “Cationic lipid-conjugated hydrocortisone as selective antitumor agent” (Eur J Med Chem, 2016).
The source made the active and inactive calls. The rule behind the calls is not given here.

Experiments:
B16-F10 [1] = test: Antitumor activity against mouse B16F10 cells xenografted in C57BL/J mouse assessed as inhibition of tumor growth at 10 mg/kg, ip; type: functional, organism-based
MDA-MB-231 [2] = test: Induction of apoptosis in human MDA-MB-231 cells assessed as early apoptotic cells at 20 uM after 24 hrs by annexin-V-FITC/propidium iodide staining based flow cytometry (reference value: 0.58 %); type: functional
MDA-MB-231 [3] = test: Induction of apoptosis in human MDA-MB-231 cells assessed as late apoptotic cells at 20 uM after 24 hrs by annexin-V-FITC/propidium iodide staining based flow cytometry (reference value: 3.25 %); type: functional
B16-F10 [4] = test: Antitumor activity in mouse B16F10 cells xenografted in C57BL/J mouse assessed as increase of apoptotic protein Bax level in tumor lysates at 10 mg/kg, ip by western blot analysis; type: functional, organism-based; settings: Neoplasm, Lysate
A549 = test: Induction of apoptosis in human A549 cells assessed as necrotic cells at 20 uM after 24 hrs by annexin-V-FITC/propidium iodide staining based flow cytometry (reference value: 3.23 %); type: functional
[5] = Cell cycle arrest in mouse B16F10 cells assessed as accumulation at G2/M phase at 20 uM after 24 hrs by propidium iodide staining based flow cytometry (reference value: 15.2 %); type: functional; settings: B16-F10
[6] = Induction of apoptosis in mouse NIH/3T3 cells assessed as late apoptotic cells at 20 uM after 24 hrs by annexin-V-FITC/propidium iodide staining based flow cytometry (reference value: 0.28 %); type: cell-based; settings: nih3t3, 24 h
HeLa = test: Cytotoxicity against human HeLa cells after 72 hrs by MTT assay; type: functional, cell-based
B16-F10 [7] = test: Antitumor activity in mouse B16F10 cells xenografted in C57BL/J mouse assessed as increase of apoptotic protein cytochrome C level in tumor lysates at 10 mg/kg, ip by western blot analysis; type: functional, organism-based; settings: Neoplasm, Lysate
B16-F10 [8] = test: Induction of apoptosis in mouse B16F10 cells assessed as viable cells at 20 uM after 24 hrs by annexin-V-FITC/propidium iodide staining based flow cytometry (reference value: 93.66 %); type: functional; settings: B16-F10, 24 h, read-out: Activity
[9] = Cytotoxicity against mouse NIH/3T3 cells after 72 hrs by MTT assay; type: cell-based; settings: NIH3T3, 72 h
Gallus gallus [10] = species on record: Gallus gallus; test: Antiangiogenic activity in chicken embryo assessed as inhibition of neovascularization at 40 uM after 4 hrs by microscopic analysis; type: functional, tissue-based
B16-F10 [11] = test: Induction of apoptosis in mouse B16F10 cells assessed as late apoptotic cells at 20 uM after 24 hrs by annexin-V-FITC/propidium iodide staining based flow cytometry (reference value: 4.47 %); type: functional
B16-F10 [12] = test: Inhibition of cell migration in mouse B16F10 cells at 20 uM after 36 hrs by wound healing assay; type: functional, cell-based
[13] = Cell cycle arrest in mouse B16F10 cells assessed as accumulation at S phase at 20 uM after 24 hrs by propidium iodide staining based flow cytometry (reference value: 5.4 %); type: functional; settings: B16-F10
B16-F10 [14] = test: Induction of apoptosis in mouse B16F10 cells assessed as increase in ratio of Bax/Bcl2 level at 20 uM after 36 hrs by western blot analysis (reference value: 0.2); type: functional
MDA-MB-231 [15] = test: Induction of apoptosis in human MDA-MB-231 cells assessed as necrotic cells at 20 uM after 24 hrs by annexin-V-FITC/propidium iodide staining based flow cytometry (reference value: 5.40 %); type: functional
[16] = Cell cycle arrest in mouse B16F10 cells assessed as accumulation at subG0/G1 phase at 20 uM after 24 hrs by propidium iodide staining based flow cytometry (reference value: 40.7 %); type: functional; settings: B16-F10
Mus musculus = test: Toxicity in C57BL/J mouse xenografted with mouse B16F10 cells assessed as animal survival at 10 mg/kg, ip measured upto 45 days post tumor inoculation; type: organism-based, B16-F10; settings: in vivo, 1080 h
Gallus gallus [17] = species on record: Gallus gallus; test: Antiangiogenic activity in chicken embryo assessed as complete degradation of existing blood vessels at 80 uM after 4 hrs by microscopic analysis; type: functional, tissue-based; settings: Blood vessel

Q: With `CCCCCCCCCCCCCCCC[N+](C)(CCCCCCCCCCCCCCCC)CCNC(=O)[C@@]1(O)CC[C@H]2[C@@H]3CCC4=CC(=O)CC[C@]4(C)[C@H]3[C@@H](O)C[C@@]21C.[Cl-]` as the molecule, how does the inhibition (B16-F10 [1]) read?
A: Its inhibition is “Active”.

Q: And the Activity (MDA-MB-231 [2])?
A: Its Activity is 4.62%.

Q: And the Activity (MDA-MB-231 [3])?
A: Its Activity is 40.23%.

Q: What about the Activity (B16-F10 [4]) of the same molecule?
A: The Activity was “Active”.

Q: And the Activity (A549)?
A: The Activity was 1.36%.

Q: And the Activity [5]?
A: Its Activity is 41.4%.

Q: And the Activity [6]?
A: Its Activity is 0.55%.

Q: What about the IC50 (HeLa) of the same molecule?
A: Its IC50 is 5.2 µM.

Q: What about the Activity (B16-F10 [7]) of the same molecule?
A: The Activity was “Active”.

Q: And the viability at 20 µM (B16-F10 [8])?
A: The viability at 20 µM was 57.4%.

Q: And the IC50 [9]?
A: Its IC50 is 20 µM.

Q: And the inhibition (Gallus gallus [10])?
A: The inhibition was “Active”.

Q: What about the Activity (B16-F10 [11]) of the same molecule?
A: Its Activity is 32.41%.

Q: And the inhibition (B16-F10 [12])?
A: The inhibition was “Active”.

Q: And the Activity [13]?
A: Its Activity is 9.6%.

Q: What about the Ratio (B16-F10 [14]) of the same molecule?
A: Its Ratio is 0.6.

Q: And the Activity (MDA-MB-231 [15])?
A: The Activity was 4.45%.

Q: And the Activity [16]?
A: Its Activity is 15.1%.

Q: What about the Activity (Mus musculus) of the same molecule?
A: Its Activity is “Non-toxic”.

Q: What about the Activity (Gallus gallus [17]) of the same molecule?
A: The Activity was “Active”.
